Measurements as given in publication PMC6479915, “Novel Benzene-Based Carbamates for AChE/BChE Inhibition: Synthesis and Ligand/Structure-Oriented SAR Study” (International Journal of Molecular Sciences, 2019).

What was measured:
AChE from electric eel = target: T1, AChE from electric eel (Electrophorus electricus, UniProt O42275); assay: biochemical; conditions: mean ± SD, n = three experiments; 25 °C, PBS pH 7.4, substrate ATCh 40 μM
T1 construct: purchased Sigma, St. Louis, MO, USA

BChE from equine serum = target: T2, BChE from equine serum (Equus caballus, UniProt P81908); assay: In vitro BChE inhibition, modified Ellman's method; format: biochemical; conditions: for SI (index selectivity) = IC50 (AChE)/IC50 (BChE): higher value = higher selectivity to BChE
T2 construct: BChE (from equine serum); purchased Sigma, St. Louis, MO, USA; host or cells: equine serum
T2 sequence (P81908 whole entry): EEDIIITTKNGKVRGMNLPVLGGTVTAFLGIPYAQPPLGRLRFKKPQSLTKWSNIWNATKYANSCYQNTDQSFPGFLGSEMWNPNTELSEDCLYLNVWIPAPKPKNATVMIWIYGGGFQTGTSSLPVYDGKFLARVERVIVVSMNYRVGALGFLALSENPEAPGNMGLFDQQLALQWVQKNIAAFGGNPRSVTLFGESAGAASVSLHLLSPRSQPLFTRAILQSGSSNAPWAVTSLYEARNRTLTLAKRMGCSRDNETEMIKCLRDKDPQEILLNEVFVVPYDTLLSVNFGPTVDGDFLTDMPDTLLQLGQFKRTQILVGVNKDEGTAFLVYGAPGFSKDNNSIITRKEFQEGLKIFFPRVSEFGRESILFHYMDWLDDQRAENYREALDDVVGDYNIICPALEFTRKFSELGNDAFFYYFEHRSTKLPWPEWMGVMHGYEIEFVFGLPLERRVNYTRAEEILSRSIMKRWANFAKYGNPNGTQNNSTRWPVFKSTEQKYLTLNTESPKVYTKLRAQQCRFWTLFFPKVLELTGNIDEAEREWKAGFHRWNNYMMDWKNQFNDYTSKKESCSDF

T1 sequence (O42275 24-633): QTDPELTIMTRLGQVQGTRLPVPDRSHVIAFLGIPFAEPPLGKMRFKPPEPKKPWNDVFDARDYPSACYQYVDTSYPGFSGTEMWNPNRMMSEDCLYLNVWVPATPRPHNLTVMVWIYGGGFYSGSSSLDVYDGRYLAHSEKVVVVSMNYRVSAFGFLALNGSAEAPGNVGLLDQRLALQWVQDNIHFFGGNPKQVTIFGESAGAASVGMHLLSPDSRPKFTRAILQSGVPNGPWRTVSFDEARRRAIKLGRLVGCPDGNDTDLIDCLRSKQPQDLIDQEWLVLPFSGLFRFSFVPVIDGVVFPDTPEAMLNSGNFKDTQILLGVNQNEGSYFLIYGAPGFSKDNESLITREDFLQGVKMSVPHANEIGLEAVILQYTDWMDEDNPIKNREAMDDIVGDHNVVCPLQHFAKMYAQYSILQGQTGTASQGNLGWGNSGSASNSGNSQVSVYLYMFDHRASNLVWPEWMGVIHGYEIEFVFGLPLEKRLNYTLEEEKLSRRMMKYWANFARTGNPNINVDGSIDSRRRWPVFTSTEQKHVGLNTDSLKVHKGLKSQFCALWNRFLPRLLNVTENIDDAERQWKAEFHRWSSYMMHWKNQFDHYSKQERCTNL

| SMILES | IC50 (AChE from electric eel) | IC50 (BChE from equine serum) | SI (index selectivity) = IC50 (AChE)/IC50 (BChE) (BChE from equine serum) |
| --- | --- | --- | --- |
| COC(=O)N(C)C(C)C(=O)c1ccc(C)cc1 (stereo not drawn) [Compound 7, Methyl methyl(1-oxo-1-(p-tolyl)propan-2-yl)carbamate] | 50.6 ± 0.63 µM | 181 ± 12 µM | 0.28 |
| CC(C(=O)c1ccc(Br)cc1)N(C)C(=O)Oc1ccccc1 (stereo not drawn) [Compound 20, Phenyl (1-(4-bromophenyl)-1-oxopropan-2-yl)(methyl)carbamate] | 51.5 ± 1.38 µM | 44.1 ± 1.71 µM | 1.17 |
| CC(C(=O)c1cccc(Cl)c1)N(C)C(=O)OCc1ccccc1 (stereo not drawn) [Compound 28, Benzyl (1-(3-chlorophenyl)-1-oxopropan-2-yl)(methyl)carbamate] | 84.4 ± 2.27 µM | 5.51 ± 0.2 µM | 15.31 |
| CC(C(=O)c1cccc(Cl)c1)N(C)C(=O)Oc1ccccc1 (stereo not drawn) [Compound 16, Phenyl (1-(3-chlorophenyl)-1-oxopropan-2-yl)(methyl)carbamate] | 109 ± 1.1 µM | 14.81 ± 0.01 µM | 7.35 |
| CCC(C(=O)c1ccccc1)N(C)C(=O)OCc1ccccc1 (stereo not drawn) [Compound 24, Benzyl methyl(1-oxo-1-phenylbutan-2-yl)carbamate] | 104 ± 2.91 µM | 21.4 ± 0.26 µM | 4.87 |
| Cc1cccc(C(=O)C(C)N(C)C(=O)OCc2ccccc2)c1 (stereo not drawn) [Compound 27, Benzyl methyl(1-oxo-1-(m-tolyl)propan-2-yl)carbamate] | 83.3 ± 2.49 µM | 12.5 ± 0.24 µM | 6.67 |
| CC(C(=O)c1ccc2c(c1)OCO2)N(C)C(=O)Oc1ccccc1 (stereo not drawn) [Compound 22, Phenyl (1-(benzo[d][1,3]dioxol-5-yl)-1-oxopropan-2-yl)(methyl)carbamate] | 84 ± 0.43 µM | 53.6 ± 0.72 µM | 1.57 |
| COC(=O)N(C)C(C)C(=O)c1ccc(Br)cc1 (stereo not drawn) [Compound 9, Methyl (1-(4-bromophenyl)-1-oxopropan-2-yl)(methyl)carbamate] | 282.7 ± 0.71 µM | 224.1 ± 2.19 µM | 1.26 |
| CCN(C(=O)OC)C(C)C(=O)c1ccccc1 (stereo not drawn) [Compound 1, Methyl ethyl(1-oxo-1-phenylpropan-2-yl)carbamate] | 245.3 ± 0.75 µM | 227.9 ± 0.9 µM | 1.08 |
| CCC(C(=O)c1ccccc1)N(C)C(=O)OC (stereo not drawn) [Compound 2, Methyl methyl(1-oxo-1-phenylbutan-2-yl)carbamate] | 329 ± 9.72 µM | 441 ± 7.54 µM | 0.75 |
| CC(C(=O)c1ccc(Br)cc1)N(C)C(=O)OCc1ccccc1 (stereo not drawn) [Compound 32, Benzyl (1-(4-bromophenyl)-1-oxopropan-2-yl)(methyl)carbamate] | 32 ± 0.54 µM | 11.3 ± 0.15 µM | 2.84 |
| COC(=O)N(C)C(C)C(=O)c1cccc(C)c1 (stereo not drawn) [Compound 4, Methyl methyl(1-oxo-1-(m-tolyl)propan-2-yl)carbamate] | 134 ± 2.3 µM | 116 ± 2.16 µM | 1.16 |
| CCC(C(=O)c1ccccc1)N(CC)C(=O)OCc1ccccc1 (stereo not drawn) [Compound 25, Benzyl ethyl(1-oxo-1-phenylbutan-2-yl)carbamate] | 119 ± 1.23 µM | 21.3 ± 0.48 µM | 5.61 |
| CCN(C(=O)OCc1ccccc1)C(C)C(=O)c1ccccc1 (stereo not drawn) [Compound 23, Benzyl ethyl(1-oxo-1-phenylpropan-2-yl)carbamate] | 158.4 ± 0.87 µM | 11.37 ± 0.05 µM | 13.93 |
| Cc1ccc(C(=O)C(C)N(C)C(=O)OCc2ccccc2)cc1C (stereo not drawn) [Compound 33, Benzyl (1-(3,4-dimethylphenyl)-1-oxopropan-2-yl)(methyl)carbamate] | 76.8 ± 2.76 µM | 16.9 ± 0.22 µM | 4.55 |
| CCC(C(=O)c1ccccc1)N(CC)C(=O)OC (stereo not drawn) [Compound 3, Methyl ethyl(1-oxo-1-phenylbutan-2-yl)carbamate] | 273.7 ± 2.16 µM | 363 ± 7.41 µM | 0.75 |
| CCC(C(=O)c1ccccc1)N(CC)C(=O)Oc1ccccc1 (stereo not drawn) [Compound 13, Phenyl ethyl(1-oxo-1-phenylbutan-2-yl)carbamate] | 95.7 ± 5.37 µM | 15.62 ± 0.06 µM | 6.13 |
| Cc1ccc(C(=O)C(C)N(C)C(=O)OCc2ccccc2)cc1 (stereo not drawn) [Compound 30, Benzyl methyl(1-oxo-1-(p-tolyl)propan-2-yl)carbamate] | 40.06 ± 0.01 µM | 26.4 ± 0.4 µM | 1.52 |
| CC(C(=O)c1ccc(Cl)cc1)N(C)C(=O)OCc1ccccc1 (stereo not drawn) [Compound 31, Benzyl (1-(4-chlroophenyl)-1-oxopropan-2-yl)(methyl)carbamate] | 52.83 ± 0.34 µM | 7.02 ± 0.15 µM | 7.53 |
| COC(=O)N(C)C(C)C(=O)c1ccc2c(c1)OCO2 (stereo not drawn) [Compound 10, Methyl (1-(benzo[d][1,3]dioxol-5-yl)-1-oxopropan-2-yl)(methyl)carbamate] | 225 ± 2.72 µM | 194.9 ± 1.93 µM | 1.16 |
| Cc1cccc(C(=O)C(C)N(C)C(=O)Oc2ccccc2)c1 (stereo not drawn) [Compound 15, Phenyl methyl(1-oxo-1-(m-tolyl)propan-2-yl)carbamate] | 166 ± 2.75 µM | 48.29 ± 0.31 µM | 3.43 |
| CCCC(C(=O)c1ccccc1)N(C)C(=O)OCc1ccccc1 (stereo not drawn) [Compound 26, Benzyl methyl(1-oxo-1-phenylpentan-2-yl)carbamate] | 134.7 ± 0.7 µM | 16.3 ± 0.17 µM | 8.26 |
| Cc1ccc(C(=O)C(C)N(C)C(=O)Oc2ccccc2)cc1 (stereo not drawn) [Compound 18, Phenyl methyl(1-oxo-1-(p-tolyl)propan-2-yl)carbamate] | 139 ± 1.45 µM | 87.6 ± 2.37 µM | 1.58 |
| Cc1ccc(C(=O)C(C)N(C)C(=O)Oc2ccccc2)cc1C (stereo not drawn) [Compound 21, Phenyl (1-(3,4-dimethylphenyl)-1-oxopropan-2-yl)(methyl)carbamate] | 47.9 ± 2.09 µM | 26.41 ± 0.05 µM | 1.82 |
| CCCC(C(=O)c1ccccc1)N(C)C(=O)Oc1ccccc1 (stereo not drawn) [Compound 14, Phenyl methyl(1-oxo-1-phenylpentan-2-yl)carbamate] | 97.97 ± 0.36 µM | 16.55 ± 0.13 µM | 5.92 |
| COC(=O)N(C)C(C)C(=O)c1cccc2ccccc12 (stereo not drawn) [Compound 35] | 127 ± 1.74 µM | 150 ± 7.13 µM | 0.84 |
| CCC(C(=O)c1ccccc1)N(C)C(=O)Oc1ccccc1 (stereo not drawn) [Compound 12, Phenyl methyl(1-oxo-1-phenylbutan-2-yl)carbamate] | 179 ± 6.21 µM | 53 ± 1.06 µM | 3.38 |
| CCN(C(=O)Oc1ccccc1)C(C)C(=O)c1ccccc1 (stereo not drawn) [Compound 11, Phenyl ethyl(1-oxo-1-phenylpropan-2-yl)carbamate] | 167 ± 1.75 µM | 27.6 ± 0.55 µM | 6.03 |
| COC(=O)N(C)C(C)C(=O)c1ccc(Cl)cc1 (stereo not drawn) [Compound 8, Methyl (1-(4-chlorophenyl)-1-oxopropan-2-yl)(methyl)carbamate] | 309 ± 6.16 µM | 132 ± 4.55 µM | 2.35 |
